Data set [1] can be described thus: Water solubility (equilibrium solubility at ambient temperature). The data set is classed as physicochemical. The procedure: The water solubility of Mesylate Salt Form 1 was measured at ambient temperature. Table 6 is a summary of the equilibrium solubility.
A short description of data set [2]: Gravimetric vapor sorption (GVS), hygroscopicity. The data set is classed as physicochemical. The procedure: Gravimetric vapor sorption (GVS) data are collected using a SGA-100 Water Vapor Sorption Analyzer from VTI Corporation. Sample sizes are typically 10 mg. A moisture adsorption/desorption isotherm is recorded by subjecting samples to a series of relative humidity (RH) steps.

SMILES strings stand for the structures. Values after ≈ are worked out from the molar mass of the structure shown. Where a name gives a salt, the structure may show the parent alone. Read-outs that look alike come from different tables or passages of the source. Bounds are passed on as bounds.

As for `C[C@@H]1CN(C(=O)CN2CC(C)(C)OC[C@H]2C(=O)Nc2cc(Cl)cc3c2[nH]c2cnccc23)C[C@H](C)O1` [free base, (S)—N-(6-chloro-9H-pyrido[3,4-b]indol-8-yl)-4-(2-((2S,6R)-2,6-dimethylmorpholino)-2-oxoethyl)-6,6-dimethylmorpholine-3-carboxamide], the solubility – broadly, the dissolved amount per volume that the medium holds – in data set [1] (in water, crystalline free base, read-out: solubility) was about 10 µg/mL (≈ 19.5 µM); in data set [1] (water, free base, read-out: intrinsic solubility), about 10 µg/mL (≈ 19.5 µM).
Turning to `C[C@@H]1CN(C(=O)CN2CC(C)(C)OC[C@H]2C(=O)Nc2cc(Cl)cc3c2[nH]c2cnccc23)C[C@H](C)O1` [Mesylate Form 1, (S)—N-(6-chloro-9H-pyrido[3,4-b]indol-8-yl)-4-(2-((2S,6R)-2,6-dimethylmorpholino)-2-oxoethyl)-6,6-dimethylmorpholine-3-carboxamide Mesylate Form 1], the “uptake (vapor sorption)” value in data set [2] (at 70% relative humidity (RH)) is on record as 1.5%; in data set [2] (at 90% RH), 3.4%. Besides, the solubility is over 360000 µg/mL in data set [1] (pH 2.52, thermodynamic from solid, water, ambient temperature, equilibrium solubility, read-out: Solubility) and over 360000 µg/mL in data set [1] (thermodynamic from solid, in water, crystalline Form 1, read-out: solubility). Besides, the pH in data set [1] (pH printed beside the equilibrium water solubility) was 2.52.

For the origin of these results see patent US20090137579A1, “Mesylate salt of an IKK inhibitor” (Millennium Pharmaceuticals, Inc., priority 2007, published 2009).
